Laboratory results from patent publication US5043450A, “8-alkoxyquinolonecarboxylic acid and salts thereof” (priority 1986, dated 1991).
Like-named read-outs stand apart in the source and are kept apart here.

What was measured:
Assay type in all cases: cell-based
[1] = system: P. aeruginosa IFO 12689; assay: Antibacterial spectra, MIC; conditions: Pseudomonas aeruginosa, IFO12689
[2] = system: Pseudomonas aeruginosa V-1; assay: Antibacterial spectra, MIC; conditions: V1
[3] = system: P. maltophilia GIFU 2491; assay: Antibacterial spectra, MIC; conditions: Stenotrophomonas maltophilia, GIFU2491
[4] = system: F. varium KYA 8501; assay: Antibacterial spectra, MIC; conditions: Fusobacterium varium, KYA8501
[5] = system: B. distasonis 8503; assay: Antibacterial spectra, MIC; conditions: Parabacteroides distasonis
[6] = system: P. aeruginosa IID 1210; assay: Antibacterial spectra, MIC; conditions: Pseudomonas aeruginosa, IID1210; 10^6 cells/ml; Gram -; read-out: MIC
[7] = system: B. thetaiotaomicron (0661); assay: Antibacterial spectra, MIC; conditions: Bacteroides thetaiotaomicron
[8] = system: S. aureus IID 670 (Terajima); assay: Antibacterial spectra, MIC; conditions: Staphylococcus aureus, IID670
[9] = system: S. pneumoniae IID 552; assay: Antibacterial spectra, MIC; conditions: Streptococcus pneumoniae, IID552
[10] = system: Klebsiella pneumoniae KY(GN)6445; assay: Antibacterial spectra, MIC
[11] = system: B. fragilis 25285; assay: Antibacterial spectra, MIC; conditions: Bacteroides fragilis
[12] = system: F. necrophorum S-45; assay: Antibacterial spectra, MIC; conditions: Fusobacterium necrophorum, S45
[13] = system: Fusobacterium mortiferum 4249; assay: Antibacterial spectra, MIC
[14] = system: Acinetobacter anitratus IID 876; assay: Antibacterial spectra, MIC; conditions: Acinetobacter calcoaceticus, IID876
[15] = system: Serratia marcescens IID 618; assay: Antibacterial spectra, MIC; conditions: IID618
[16] = system: Morganella morganii IID 602; assay: Antibacterial spectra, MIC; conditions: IID602
[17] = system: Yersinia enterocolitica IID 981; assay: Antibacterial spectra, MIC; conditions: IID981
[18] = system: Streptococcus pyogenes (S-8); assay: Antibacterial spectra, MIC; conditions: 10^6 cells/ml, Gram +
Experimental: (§1) The antibacterial test was carried out according to the method designated by Japan Society of Chemotherapy.

[19] = system: Proteus vulgaris IFO 3167; assay: Antibacterial spectra, MIC; conditions: IFO3167, 10^6 cells/ml, Gram -
Experimental: as §1

[20] = system: E. faecalis IID 682; assay: Antibacterial spectra, MIC; conditions: Enterococcus faecalis, IID682; 10^6 cells/ml; Gram +
Experimental: as §1

[21] = system: Shigella sonnei IID 969; assay: Antibacterial spectra, MIC; conditions: IID969, 10^6 cells/ml, Gram -
Experimental: as §1

[22] = system: E. coli ML 4707; assay: Antibacterial spectra, MIC; conditions: Escherichia coli, ML4707; 10^6 cells/ml; Gram -
Experimental: as §1

[23] = system: Veillonella parvula KYA 10790; assay: Antibacterial spectra, MIC; conditions: KYA10790
[24] = system: Citrobacter freundii IID 976; assay: Antibacterial spectra, MIC
[25] = system: Bacilus subtilis PCI 219; assay: Antibacterial spectra, MIC; conditions: Bacillus subtilis, PCI219
[26] = system: Staphylococcus aureus 209 P; assay: Antibacterial spectra, MIC
[27] = system: K. pneumoniae 1-220S; assay: Antibacterial spectra, MIC; conditions: Klebsiella pneumoniae, 1220S
[28] = system: C. perfringens KYA 13123; assay: microbe, parasite or virus in culture; conditions: Clostridium perfringens, KYA13123
[29] = system: S. epidermidis IID 866; assay: Antibacterial spectra, MIC; conditions: Staphylococcus epidermidis, IID866
[30] = system: Propionibacterium acens 11828; assay: Antibacterial spectra, MIC
[31] = system: Eubacterium lentum GAI 5242; assay: Antibacterial spectra, MIC; conditions: Eggerthella lenta, GAI5242
[32] = system: P. cepacia GIFU 518; assay: Antibacterial spectra, MIC; conditions: Burkholderia cepacia, GIFU518
[33] = system: Alcaligenes faecalis 0114002; assay: Antibacterial spectra, MIC
[34] = system: Enterobacter cloacae IID 977; assay: Antibacterial spectra, MIC; conditions: IID977
[35] = system: Salmonella enteritidis IID 604; assay: Antibacterial spectra, MIC; conditions: Salmonella enterica
[36] = system: E. coli ATCC 10536; assay: Antibacterial spectra, MIC; conditions: Escherichia coli, ATCC10536
[37] = system: Peptococcus magnus KY 017; assay: Antibacterial spectra, MIC; conditions: Finegoldia magna, KY017
[38] = system: P. mirabilis IID 994; assay: Antibacterial spectra, MIC; conditions: Proteus mirabilis, IID994
[39] = system: S. pyogenes IID 692; assay: Antibacterial spectra, MIC; conditions: Streptococcus pyogenes, IID692
[40] = system: Peptostreptococcus anaerobius KYA 27337; assay: Antibacterial spectra, MIC
[41] = system: C. ramosum; assay: Antibacterial spectra, MIC; conditions: Thomasclavelia ramosa
[42] = system: Bacteroides fragilis GM 7000; assay: Antibacterial spectra, MIC
[43] = system: S. aureus Smith; assay: Antibacterial spectra, MIC; conditions: Staphylococcus aureus
[44] = system: Pst. micros UPI 5464-1; assay: Antibacterial spectra, MIC; conditions: Parvimonas micra, UPI54641
[45] = system: B. fragilis 0558; assay: Antibacterial spectra, MIC; conditions: Bacteroides fragilis
[46] = system: B. vulgatus KYA 29327; assay: Antibacterial spectra, MIC; conditions: Phocaeicola vulgatus, KYA29327
[47] = system: Escherichia coli NIHJ JC-2; assay: Antibacterial spectra, MIC; conditions: NIHJJC2
[48] = 10^6 cells/ml, Gram -, read-out: MIC
[49] = 10^6 cells/ml, Gram +, read-out: MIC

Measured: MIC

CNCC1CCN(c2c(F)cc3c(=O)c(C(=O)O)cn(C4CC4)c3c2OC)C1 (stereo not drawn) [Exp. 8, 1-cyclopropyl-6-fluoro-1,4-dihydro-8-methoxy-7-(3-methylaminomethyl-1-pyrrolidinyl)-4-oxo-3-quinolinecarboxylic acid]
0.05 µg/mL: [8] | [9] | [10] | [18] | [19] | [20] | [21] | [22] | [24]; IID976 | [26] | [29] | [36] | [38] | [39] | [43]
3.13 µg/mL: [1] | [4] | [5] | [7] | [46]
0.025 µg/mL: [25] | [47]
1.56 µg/mL: [32]; [48] | [33]; [48]
≤ 0.05 µg/mL: [37]
0.2 µg/mL: [14] | [15] | [28] | [31] | [34] | [40]; KYA27337
12.5 µg/mL: [6]
0.39 µg/mL: [3] | [11] | [12] | [13] | [16] | [23] | [41] | [42]; GM7000 | [44] | [45]
0.1 µg/mL: [17] | [27] | [35]
0.78 µg/mL: [2] | [30]

COc1c(N2CCNCC2)c(F)c(N)c2c(=O)c(C(=O)O)cn(C3CC3)c12 [Exp. 10, 5-amino-1-cyclopropyl-6-fluoro-1,4-dihydro-8-methoxy-4-oxo-7-(1-piperazinyl)-3-quinolinecarboxylic acid]
0.78 µg/mL: [31] | [33]
0.2 µg/mL: [3] | [15] | [16] | [17] | [27] | [34] | [35] | [38]
3.13 µg/mL: [11] | [28] | [42]; GM7000 | [45]
0.05 µg/mL: [10] | [22] | [24]; IID976 | [26] | [36]
0.025 µg/mL: [21] | [25] | [47]
1.56 µg/mL: [1]; [48] | [6] | [12]; [48] | [13]; [48] | [32]; [48] | [37]; [49] | [40]; KYA27337, 10^6 cells/ml, Gram +, read-out: MIC | [41]; [49]
50 µg/mL: [4]; [48]
> 0.78 µg/mL: [9] | [39]
0.1 µg/mL: [8] | [14] | [19] | [43]
0.39 µg/mL: [2] | [18] | [20] | [23] | [44] | [46]
6.25 µg/mL: [5]; [48] | [7]; [48]
12.5 µg/mL: [30]; [49]

COc1c(N2CCC(N)C2)c(F)c(N)c2c(=O)c(C(=O)O)cn(C3CC3)c12 (stereo not drawn) [Exp. 11, 5-amino-7-(3-amino-1-pyrrolidinyl)-1-cyclopropyl-6-fluoro-1,4-dihydro-8-methoxy-4-oxo-3-quinolinecarboxylic acid]
0.2 µg/mL: [3] | [9] | [15] | [16] | [18] | [19] | [20] | [27]
0.1 µg/mL: [17] | [35] | [38]
6.25 µg/mL: [30]; [49]
1.56 µg/mL: [1]; [48] | [6] | [7]; [48] | [11]; [48] | [12]; [48] | [32]; [48] | [41]; [49] | [42]; GM7000, 10^6 cells/ml, Gram -, read-out: MIC | [45]; [48]
3.13 µg/mL: [13]
0.05 µg/mL: [8] | [10] | [14] | [24]; IID976 | [34]
25 µg/mL: [4]; [48]
0.025 µg/mL: [21] | [22] | [26] | [36] | [43] | [47]
0.78 µg/mL: [2] | [23] | [28] | [33] | [37] | [40]; KYA27337 | [44] | [46]
0.0125 µg/mL: [25]
12.5 µg/mL: [5]; [48]
0.39 µg/mL: [31] | [39]

CCNCC1CCN(c2c(F)cc3c(=O)c(C(=O)O)cn(C4CC4)c3c2OC)C1 (stereo not drawn) [Exp. 9, 1-cyclopropyl-7-(3-ethylaminomethyl-1-pyrrolidinyl)-6-fluoro-1,4-dihydro-8-methoxy-4-oxo-3-quinolinecarboxylic acid]
6.25 µg/mL: [6]
0.39 µg/mL: [2] | [23] | [44] | [46]
0.0125 µg/mL: [8] | [26] | [43]
≤ 0.05 µg/mL: [28] | [37] | [40]; KYA27337
0.05 µg/mL: [10] | [14] | [20] | [35] | [39]
1.56 µg/mL: [1]; [48] | [4]; [48] | [30]; [49]
0.055 µg/mL: [24]; IID976, 10^6 cells/ml, Gram -, read-out: MIC
0.78 µg/mL: [5] | [7] | [32] | [33]
0.025 µg/mL: [9] | [18] | [19] | [21] | [22] | [29] | [36] | [38]
0.1 µg/mL: [11] | [15] | [17] | [27] | [31] | [34] | [42]; GM7000 | [45]
0.0063 µg/mL: [25] | [47]
0.2 µg/mL: [3] | [12] | [13] | [16] | [41]
